Source: patent publication US7419969B2 (Bristol-Myers Squibb Company, priority 2004, dated 2008)
pIC50: −log10 of the molar value.

What was measured:
HIV-integrase = molecular target: T1, HIV-integrase (Human immunodeficiency virus type 1 group M subtype B, UniProt P04585); assay: in-vitro activity against HIV-integrase (HIV Integrase Inhibition, SPA bead assay); assay type: biochemical; settings: Table 1a; recombinant integrase, activity class
T1 construct: Recombinant integrase (0.26 ng) was incubated with the beads
Method in brief: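 Recombinant integrase (0.26 ng) pre-bound for 90 min at 37 °C to biotinylated substrate DNA on streptavidin SPA beads, then washed. Inhibitors added with 33P-labelled target DNA; reaction stopped with 10 mM EDTA. Scintillation CPM taken as integration signal.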

Cc1ncn(-c2cc(F)ccc2CNC(=O)c2nc3n(c(=O)c2O)CCCOC32CCOCC2)n1 [Example 119, Spiro[4H-pyran-4,10′(4′H)-[6H]pyrimido[2,1-c][1,4]oxazepine]-2′-carboxamide, N-[[4-fluoro-2-(3-methyl-1H-1,2,4-triazol-1-yl)phenyl]methyl]-2,3,5,6,7′,8′-hexahydro-3′-hydroxy-4′-oxo-]
pIC50 (HIV-integrase): 8.00 to 9.00 | melting point: 240 °C (dec.)
